Earlier results in paper PMC6699497 (Drug Design, Development and Therapy, 2019).

Assays:
[1] = rat
[2] = species not given
[3] = previous study compared with present value

## CNC(=O)c1c(C)oc2cc(Oc3ncnc4cc(OC)c(OC)cc34)ccc12 [Fruquintinib, 6-(6,7-dimethoxyquinazolin-4-yloxy) - N,2-dimethylbenzofuran-3-carboxamide]
[1]
  oral bioavailability: 42–53%
[1]; [3]
  Cmax: 326.00 ng/mL
  t1/2: 1.40 h
[2]
  plasma protein binding fraction: 88–95%
